Earlier results as cited in article PMC6777988 (ACS infectious diseases, 2018).

Experiments:
[1] = tested on: C. parvum; conditions: combined with partial CpCDPK1 siRNA knockdown
[2] = tested on: Cryptosporidium; conditions: immunocompromised patients and malnourished children

## CCOc1ccc2cc(-c3nn(CC4CCN(C)CC4)c4ncnc(N)c34)ccc2c1 [Compound 1294]
[1]
  effect on proliferation of C. parvum parasites: further inhibitory effects

## CCOc1ccc2cc(-c3nn(C(C)(C)C)c(N)c3C(N)=O)cnc2c1 [Compound 1517]
[1]
  effect on proliferation of C. parvum parasites: further inhibitory effects

## CC(=O)Oc1ccccc1C(=O)Nc1ncc([N+](=O)[O-])s1 [Nitazoxanide, nitazoxanide]
[2]
  efficacy in patients: minimal efficacy
